Data: ChEMBL document CHEMBL4229475, “Synthesis of novel imidazopyridines and their biological evaluation as potent anticancer agents: A promising candidate for glioblastoma” (Bioorg Med Chem Lett, 2018)
Activity calls are given as the source filed them. The rule behind the calls is not given here.

Columns and labels:
LN-405 [1] = assay: Cytotoxicity against human LN405 cells assessed as decrease in cell viability at 100 uM after 96 hrs by MTT assay; format: functional, cell-based
LN-405 [2] = assay: Cytotoxicity against human LN405 cells assessed as cell viability at 100 uM after 96 hrs by MTT assay relative to control; format: functional; details: LN-405, 96 h, read-out: Activity
[3] = Cytotoxicity against human WS1 cells assessed as decrease in cell viability after 96 hrs by MTT assay; format: cell-based; details: WS1, 96 h
LN-405 [4] = assay: Cell cycle arrest in human LN405 cells assessed as decrease in cell levels at S phase at IC50 after 72 hrs by propidium iodide staining-based flow cytometric method; format: functional
LN-405 [5] = assay: Induction of DNA damage in human LN405 cells assessed as cell with damage DNA at IC50 after 72 hrs by COMET assay (reference value: 0.7%); format: functional
LN-405 [6] = assay: Cell cycle arrest in human LN405 cells assessed as accumulation at G0/G1 phase at IC50 after 72 hrs by propidium iodide staining-based flow cytometric method relative to control; format: functional
LN-405 [7] = assay: Cytotoxicity against human LN405 cells assessed as decrease in cell viability after 96 hrs by MTT assay; format: functional, cell-based; details: LN-405, 96 h

CC1CCN(c2cc(-c3ccc4ccccc4c3)c3nc(-c4ccc5ccccc5c4)cn3c2)CC1
Activity (LN-405 [1]): inactive

CC1CCN(c2cc(-c3ccc(Br)cc3)c3nc(-c4ccc(Br)cc4)cn3c2)CC1
Activity (LN-405 [1]): inactive

CC1CCN(c2cc(-c3cccs3)c3nc(-c4cccs4)cn3c2)CC1
Activity (LN-405 [1]): inactive

COc1ccc(-c2cn3cc(N4CCC(C)CC4)cc(-c4ccc(OC)cc4)c3n2)cc1
viability at 100 µM (LN-405 [2]): 80%

CC1CCN(c2cc(-c3ccc(F)cc3)c3nc(-c4ccc(F)cc4)cn3c2)CC1
viability at 100 µM (LN-405 [2]): 32% | IC50 [3]: 844 µM | Activity (LN-405 [4]): Active | Activity (LN-405 [5]): 0.9% | Activity (LN-405 [6]): 98.2% | IC50 (LN-405 [7]): 75 µM

CC1CCN(c2cc(-c3ccc(Br)s3)c3nc(-c4ccc(Br)s4)cn3c2)CC1
Activity (LN-405 [1]): inactive

CC1CCN(c2cc(-c3ccccc3)c3nc(-c4ccccc4)cn3c2)CC1
viability at 100 µM (LN-405 [2]): 6% | IC50 [3]: 480 µM | Activity (LN-405 [4]): Active | Activity (LN-405 [5]): 14% | Activity (LN-405 [6]): 99.2% | IC50 (LN-405 [7]): 10 µM

CC1CCN(c2cc(-c3ccc(-c4ccccc4)cc3)c3nc(-c4ccc(-c5ccccc5)cc4)cn3c2)CC1
Activity (LN-405 [1]): inactive
